Source: patent US20250269039A1, “THERAPEUTIC-OLIGONUCLEOTIDES ACTIVATED BY NUCLEASES” (priority 2020, published 2025)
Values after ≈ are worked out from the molar mass of the structure shown.

How the values were obtained:
[1] = test system: S. aureus NCTC 12493 (MRSA); experiment: Broth microdilution MIC and growth inhibition; format: cell-based, Staphylococcus aureus; conditions: Table 1, S. aureus NCTC 12493; for MIC: Staphylococcus aureus, read-out: MIC; for % Growth inhibition: mean ± SD, n = 3
Source text: (§1) Bacteria strains. S. aureus NCTC 12493 (MRSA), S. aureus ATCC 29213 (MSSA), S. aureus ATCC 43300 (MRSA), S. aureus ATCC 1707 (MRSA), S. aureus ATCC 1717 (MRSA), S. aureus ATCC 1747 (MRSA), S. aureus ATCC 1761 (MRSA), S. aureus ATCC 1766 (MRSA), S. aureus ATCC 1768 (MRSA), S. epidermidis ATCC 35984, E. coli ATCC 25922, K. pneumoniae ATCC 13883, P. mirabilis ATCC 25933, S. enterica ATCC 14028 and P. aeruginosa ATCC 10145 strains were used in this study. Bacteria were initially inoculated onto tryptone soy agar with 5% defibrinated sheep blood (Thermo Fisher Scientific, Inc., Waltham, MA, USA) and incubated at 37° C. for 24 hours. Then, single colonies of each strain were transferred to tryptone soy broth (Thermo Fisher Scientific) for the nuclease activity assay or antimicrobial susceptibility testing, respectively.
(§2) Antimicrobial susceptibility testing. Minimal inhibitory concentrations (MIC) of all nucleoside analogues and TOUCANs against each bacteria strain were determined using broth microdilution method. A single colony obtained from overnight culture on tryptone soy agar with 5% defibrinated sheep blood was inoculated in cation-adjusted Mueller Hinton Broth and adjusted to 10^6 CFU/mL. TOUCANs were prepared in PBS+/+ (treatment) and serial dilutions were made in 96-well polystyrene round bottom microwell plates with 50 μL final volume for each concentration. PBS+/+ was used as untreated control. Next, 50 μL bacteria solutions were added to each well to a final bacteria concentration of 5×10^5 CFU/mL. Plates were incubated at 37° C. in Cytation 1 Cell Imaging Multimode Reader. Growth curves were obtained by measuring optical densities at 600 nm every 10 minutes for 18 hours using Cytation 1 Cell Imaging Multimode Reader. In addition, visual inspection of the plates was carried out after 18 hours and photographs were taken. MICs were defined as the lowest drug concentration in the microwell at which bacterial growth was not visible at the end of the incubation period. Besides MIC determination, specificity of TOUCAN 7mGe was also shown with subcultures on chromogenic media. For this purpose, 5 μL of different concentrations of each strain were inoculated onto CHROM agar Orientation Media (Becton Dickinson) and the bacterial growth of each bacteria strain tested was observed by naked eye after incubation at 37° C. for 24 hours. Finally, photographs of the chromogenic media were taken.

[2] = test system: S. aureus ATCC 29213 (MSSA); experiment: Broth microdilution MIC and growth inhibition; format: cell-based, Staphylococcus aureus; conditions: Table 1, S. aureus ATCC 29213; for MIC: Staphylococcus aureus, read-out: MIC; for % Growth inhibition: mean ± SD, n = 3
Source text: as §1, §2

S. aureus = experiment: Growth inhibition curves / MICs in S. aureus cultures (strain not named or summary over strains); format: cell-based, Staphylococcus aureus; conditions: S. aureus cultures, optical density (OD) over 18 h; FIG. 1b
Method: as §2

[3] = test system: Breast cancer cells (MDAMB231); experiment: Anti-cancer drug susceptibility testing for TOUCAN 7mDx, breast cancer cells, 96 h; format: cell-based; conditions: FIG. 15
Method: Anti-cancer drug susceptibility testing for TOUCAN 7mDx. Doxorubicin and equivalent 7mDx solutions were prepared as explained before. Then, 7mDx was pre-exposed to 5 μl of 10 U MN for 1 hour at 37° C. (7mDx+MN). 100 μl of all drugs (Doxorubicin, 7mDx, and 7mDx+MN) were added to the related wells and serially diluted using PBS+/+making the final concentrations between 20-0.3 μg/μl. Breast cancer cells (MDAMB231) were prepared as 20.000 cells/ml and 100 μl cell suspensions were added to each well. The plate was incubated at 37° C. for 96 hours. At 48th hour of incubation, 100 μl CyQUANT® Direct Cell Proliferation Assay kit was added to each well. Cell counts and images were taken at the end of 96 hours incubation period using Cytation 1 Cell Imaging Multi-Mode Reader.

| Compound | MIC [1] | % Growth inhibition [1] | MIC [2] | % Growth inhibition [2] | bacterial growth inhibition (S. aureus) | further results |
| --- | --- | --- | --- | --- | --- | --- |
| Nc1ncnc2c1ncn2[C@@H]1O[C@H](CO)[C@@H](O)[C@@H]1O [Vidarabine] | 40 µg/mL (≈ 150 µM) | 85.1 ± 0.8% | > 40 µg/mL | 34.1 ± 0.8% |  |  |
| mU-mU-mU-mU-Ge-T-T-mU-mU-mU-mU (UUUUGTTUUUU; chemistry not given here) [GeTT, TOUCAN with Gemcitabine upstream of TT] |  |  |  |  | low growth inhibition efficiency |  |
| Nc1ccn([C@@H]2O[C@H](CO)[C@@H](O)[C@@H]2O)c(=O)n1 [Cytarabine] | > 40 µg/mL | 39.4 ± 2.5% | > 40 µg/mL | 16.3 ± 6.9% |  |  |
| mU-mU-mU-mU-Ge-mU-mU-mU-mU [Ge-Control] |  |  |  |  | low growth inhibition efficiency |  |
| mU-mU-mU-mU-T-T-Dx [TOUCAN 7mDx] |  |  |  |  |  | effect on viability of breast cancer cells ([3]; 7mDx alone (no nuclease)): did not show a significant effect on viability; therapeutic efficacy in breast cancer cells (viability) ([3]; 7mDx spiked with MN): remarkable therapeutic efficacy |
